pKi: −log10 of the molar value.
Each compound was assayed against T1, α5β3γ2 GABAA receptors (Ltk cell membranes) (Homo sapiens, UniProt P18507+P31644) (assay: Binding activity of test compounds on GABAAR: inhibition of [3H]Ro15-1788 binding). Settings: not given.
T1 construct: membranes
Procedure: Tissue culture and Membrane Preparation: The binding was performed on Ltk cells stably expressing GABAA receptors: α1β1γ2, α2β3γ2, α3β3γ2 and α5β3γ2 (provided by Merck Co., NJ, USA). Cells were seeded in 100 mm culture plates in DMEM/F12 medium containing 10% serum and antibiotics in 5% CO2 and allowed to grow for 1-2 days. GABAAR expression was then induced by dexamethasone as follows: 0.5 μM for 1 day for α5 containing and 2μM for 3 days for α1, α2 and α3 containing GABAARs. After induction, cells were collected by scraping into Dulbecco's Phosphate buffered saline (DPBS, pH 7.4, Invitrogen, Carlsbad, Calif., USA) and centrifuged at 150×g for 10 min. The pellet was washed twice by re-suspension and centrifugation. The cell pellets from at least 5 different preps were combined, suspended in the binding assay buffer (50 mM KH2P4; 1 mM EDTA; 0.2 M KCl, pH 7.4) and membranes prepared by sonication (3-5 times, 30 sec) using Branson Sonifier 150 (G.Heinmann, Germany). Protein content was determined using BCA assay (Bio-Rad Labs, Reinach, Switzerland) with Bovine Serum Albumin (Sigma Aldrich, St. Louis, Mo., USA) as the standard. Aliquots were prepared and stored at −20° C. for further use in binding assays.
Ligand Binding: Saturation binding curves were obtained by incubating membranes with increasing concentrations (0.01-8 nM) of [^3H]Ro15-1788 (Flumazepil, 75-85 Ci/mmol, PerkinElmer, MA, USA), with nonspecific binding measured in the presence of 10 μM diazepam.
All binding assays were performed for 1 h at 4° C. in assay buffer. The total assay volume was 0.5 ml containing 0.2 mg/ml protein for α5 and 0.4 mg/ml for α1, α2, and α3 containing GABAAR membranes. Incubations were terminated by filtration through GF/B filters using a 24-Cell Harvestor (Brandel, Gaithersburg, Md., USA) followed by 3 washes with ice-cold assay buffer. Filters were transferred to scintillation vials, 5 ml scintillation liquid added, vortex-mixed and kept in dark. Next day, radioactivity was obtained using a scintillation counter (Beckman Coulter, Brea, Calif., USA). All assays were performed in triplicate.
Data Analyses: Saturation and inhibition curves were obtained using GraphPad Prism software (GraphPad Software, Inc., CA, USA).

T1 sequence (P31644 32-462): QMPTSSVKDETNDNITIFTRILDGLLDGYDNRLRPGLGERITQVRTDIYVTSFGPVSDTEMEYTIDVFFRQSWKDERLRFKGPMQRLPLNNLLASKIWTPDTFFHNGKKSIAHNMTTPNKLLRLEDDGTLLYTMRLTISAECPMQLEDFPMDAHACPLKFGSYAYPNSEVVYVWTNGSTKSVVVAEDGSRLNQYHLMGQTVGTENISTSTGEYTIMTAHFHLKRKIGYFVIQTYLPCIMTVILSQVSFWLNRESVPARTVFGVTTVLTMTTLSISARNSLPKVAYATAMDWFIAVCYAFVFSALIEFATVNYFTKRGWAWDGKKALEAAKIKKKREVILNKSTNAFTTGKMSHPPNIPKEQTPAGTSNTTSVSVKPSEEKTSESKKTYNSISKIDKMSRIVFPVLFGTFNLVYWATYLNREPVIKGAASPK
T1 sequence (P28472 26-473 partner): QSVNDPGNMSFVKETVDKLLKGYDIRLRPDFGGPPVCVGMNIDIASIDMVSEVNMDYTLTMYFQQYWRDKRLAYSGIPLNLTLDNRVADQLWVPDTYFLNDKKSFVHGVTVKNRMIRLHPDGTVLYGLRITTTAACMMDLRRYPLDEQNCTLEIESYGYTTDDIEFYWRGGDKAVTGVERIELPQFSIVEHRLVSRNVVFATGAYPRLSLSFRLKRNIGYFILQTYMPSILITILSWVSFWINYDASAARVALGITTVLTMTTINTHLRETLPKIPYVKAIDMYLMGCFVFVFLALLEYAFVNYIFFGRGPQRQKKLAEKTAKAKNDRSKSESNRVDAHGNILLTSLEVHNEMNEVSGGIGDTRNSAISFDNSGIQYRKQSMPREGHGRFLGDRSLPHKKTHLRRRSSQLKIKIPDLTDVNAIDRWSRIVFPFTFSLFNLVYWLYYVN
T1 sequence (P18507 40-475): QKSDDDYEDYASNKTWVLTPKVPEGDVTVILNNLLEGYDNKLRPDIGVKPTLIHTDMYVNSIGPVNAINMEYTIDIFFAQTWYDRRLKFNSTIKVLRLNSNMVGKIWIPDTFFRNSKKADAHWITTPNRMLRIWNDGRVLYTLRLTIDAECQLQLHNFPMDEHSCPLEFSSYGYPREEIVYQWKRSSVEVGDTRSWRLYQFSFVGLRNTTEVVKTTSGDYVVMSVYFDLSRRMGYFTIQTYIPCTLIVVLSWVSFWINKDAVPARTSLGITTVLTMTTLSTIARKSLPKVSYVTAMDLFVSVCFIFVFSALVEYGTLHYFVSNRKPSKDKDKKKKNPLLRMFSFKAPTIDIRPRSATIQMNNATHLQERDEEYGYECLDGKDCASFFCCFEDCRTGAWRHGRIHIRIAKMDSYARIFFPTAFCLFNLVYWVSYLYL

Row | Structure (SMILES) | pKi
1 | COCc1nnc2n1Cc1c(-c3nc(C)no3)ncn1-c1c(Cl)cccc1-2 [Compound 463] | < 6.00
2 | Cc1ccc(S(=O)(=O)c2ncn3c2Cc2c(C)nnn2-c2cc(F)ccc2-3)cc1 [Compound 143] | < 6.00
3 | CC(C)OCc1nnc2n1Cc1c(/C=C/c3ccccc3)ncn1-c1ccc(Cl)cc1-2 [Compound 446] | < 6.00
4 | CCC(=O)c1ncn2c1Cn1c(COc3ccccc3)nnc1-c1cc(OC)ccc1-2 [Compound 123] | < 6.00
5 | COCc1nnc2n1Cc1c(-c3ncco3)ncn1-c1c(Cl)cccc1-2 [Compound 466] | < 6.00
6 | CC(C)OCc1nnc2n1Cc1c(-c3cnco3)ncn1-c1ccc(Cl)cc1-2 [Compound 315] | < 6.00

Same assay, conditions: GABA α5 Binding Ki Values, inhibition of [3H]Ro15-1788 binding; reported as ranges

Row | Structure (SMILES) | pKi
7 | CCOCc1nnc2n1Cc1c(-c3noc(C(C)C)n3)ncn1-c1ccc(F)cc1-2 [Compound 187] | > 7.00
8 | C#Cc1nc(C)n2c1Cn1c(COC(C)C)nnc1-c1cc(Cl)ccc1-2 [Compound 305] | 6.00 to 7.00
9 | COCc1nnc2n1Cc1c(-c3nc(C(C)C)co3)ncn1-c1ccc(Cl)cc1-2 [Compound 246] | 6.00 to 7.00
10 | FC(F)(F)COCc1nnc2n1Cc1c(C3=NCCO3)ncn1-c1ccc(Cl)cc1-2 [Compound 309] | 6.00 to 7.00
11 | Clc1ccc2c(c1)-n1nncc1Cc1c(-c3ncco3)ncn1-2 [Compound 393] | > 7.00
12 | COc1ccc2c(c1)-n1nncc1Cc1c(C#CCc3cccc(F)c3)ncn1-2 [Compound 419] | > 7.00
13 | CC(C)c1nc(-c2ncn3c2Cn2c(COc4cccnc4)nnc2-c2cc(F)ccc2-3)no1 [Compound 185] | > 7.00
14 | Cc1noc(-c2ncn3c2Cc2cnnn2-c2cc(Cl)ccc2-3)n1 [Compound 425] | > 7.00
15 | COCc1nnc2n1Cc1c(-c3ncc(C)o3)ncn1-c1ccc(Cl)cc1-2 [Compound 296] | > 7.00
16 | Cc1ccc(S(=O)(=O)c2ncn3c2Cc2c(C)nnn2-c2cc(F)ccc2-3)cc1 [Compound 143] | 6.00 to 7.00
17 | Cc1noc(-c2ncn3c2Cc2c(Cc4ccccc4)nnn2-c2cc(F)ccc2-3)n1 [Compound 109] | > 7.00
18 | CCOC(=O)c1ncn2c1Cc1c(COc3ccc(C)cc3C)nnn1-c1cc(OC)ccc1-2 [Compound 12] | > 7.00
19 | Cc1ncn2c1Cc1c(C)nnn1-c1cc(F)ccc1-2 [Compound 135] | < 6.00
20 | CCOC(=O)c1ncn2c1Cc1c(Cc3ccc(F)cc3)nnn1-c1cc(F)ccc1-2 [Compound 46] | > 7.00
21 | Clc1ccc2c(c1)-n1nncc1Cc1c(Br)ncn1-2 [Compound 452] | > 7.00
22 | COCc1nnc2n1Cc1c(C#CCc3cccc(OC(F)(F)F)c3)ncn1-c1ccc(Cl)cc1-2 [Compound 423] | > 7.00
23 | Cc1noc(-c2ncn3c2Cc2c(C)nnn2-c2ccccc2-3)n1 [Compound 126] | > 7.00
24 | COCc1nnc2n1Cc1c(-c3ncco3)ncn1-c1ccc(OC(F)(F)F)cc1-2 [Compound 467] | > 7.00
25 | COc1ccc2c(c1)-n1nncc1Cc1c(C3=N[C@@H](c4ccccc4F)CO3)ncn1-2 [Compound 366] | > 7.00
26 | COc1cccc(C#Cc2ncn3c2Cc2cnnn2-c2cc(OC)ccc2-3)c1 [Compound 409] | > 7.00
27 | CC(C)c1nc(-c2ncn3c2Cc2c(C(=O)c4ccc(F)cc4)nnn2-c2ccc(F)cc2-3)no1 [Compound 230] | > 7.00
28 | C#Cc1ncn2c1Cn1c(COC(C)C)nnc1-c1cc(Cl)ccc1-2 [Compound 288] | > 7.00

Row | Structure (SMILES) | pKi
29 | COCc1nnc2n1Cc1c(-c3nc(C)no3)ncn1-c1ccc(C(F)(F)F)cc1-2 [Compound 459] | > 7.00
30 | COCc1nnc2n1Cc1c(C3=N[C@@H](c4cccc(OC)c4)CO3)ncn1-c1ccc(Cl)cc1-2 [Compound 333] | > 7.00
31 | CCOC(=O)c1ncn2c1Cc1c(CN3CCCC3)nnn1-c1cc(OC)ccc1-2 [Compound 48] | > 7.00
32 | COCc1nnc2n1Cc1c(C3=N[C@@H](c4ccccc4)CO3)ncn1-c1ccc(Cl)cc1-2 [Compound 264] | > 7.00
33 | COc1ccc2c(c1)-n1nnc(COc3ccccc3)c1Cc1c(-c3noc(C)n3)ncn1-2 [Compound 182] | > 7.00
34 | Clc1ccc2c(c1)-n1nncc1Cc1c(-c3nc(-c4ccccc4)co3)ncn1-2 [Compound 385] | > 7.00
35 | COc1ccc2c(c1)-n1nncc1Cc1c(C3=N[C@@H](c4ccc(F)c(C(F)(F)F)c4)CO3)ncn1-2 [Compound 375] | > 7.00
36 | COCc1nnc2n1Cc1c(C#Cc3ccccc3)ncn1-c1ccc(Cl)cc1-2 [Compound 285] | > 7.00
37 | CCOCc1nnc2n1Cc1c(-c3ncco3)ncn1-c1ccc(Cl)cc1-2 [Compound 341] | > 7.00
38 | CCOC(=O)c1ncn2c1Cn1c(Oc3ccccc3)nnc1-c1cc(OC)ccc1-2 [Compound 104] | > 7.00
39 | COCc1nnc2n1Cc1c(-c3nc(C)co3)ncn1-c1ccc(Cl)cc1-2 [Compound 244] | > 7.00
40 | Cc1nc(-c2ncn3c2Cc2c(C)nnn2-c2ccccc2-3)no1 [Compound 127] | > 7.00
41 | Cc1coc(-c2ncn3c2Cn2c(COCC(F)(F)F)nnc2-c2cc(Cl)ccc2-3)n1 [Compound 312] | 6.00 to 7.00
42 | CCOCc1nnc2n1Cc1c(C3=N[C@H](c4ccccc4)CO3)ncn1-c1ccc(Cl)cc1-2 [Compound 271] | > 7.00
43 | Cc1nnn2c1Cc1c(-c3noc(C(C)(C)C)n3)ncn1-c1ccc(F)cc1-2 [Compound 160] | > 7.00
44 | CCc1nc(-c2ncn3c2Cc2c(Cc4ccc(F)cc4)nnn2-c2cc(OC)ccc2-3)no1 [Compound 195] | > 7.00
45 | COc1ccc2c(c1)-n1nnc(COc3ccc(F)cc3)c1Cc1c(C#N)ncn1-2 [Compound 222] | > 7.00
46 | Clc1ccc2c(c1)-n1nncc1Cc1c(C#Cc3ccccc3)ncn1-2 [Compound 395] | > 7.00
47 | COCc1nnc2n1Cc1c(-c3nc(C)no3)ncn1-c1ccc(OC)cc1-2 [Compound 128] | > 7.00
48 | Cc1nc(-c2ncn3c2Cc2c(C)nnn2-c2cc(F)ccc2-3)no1 [Compound 145] | > 7.00
49 | CC(C)c1nc(-c2ncn3c2Cn2c(COc4ccc(F)cc4)nnc2-c2cc(F)ccc2-3)no1 [Compound 189] | > 7.00
50 | COCc1nnc2n1Cc1c(-c3noc(C(C)C)n3)ncn1-c1ccc(OC)cc1-2 [Compound 169] | > 7.00

Row | Structure (SMILES) | pKi
51 | COc1ccc2c(c1)-n1nnc(CN3CCCCC3)c1Cc1c(C#N)ncn1-2 [Compound 251] | < 6.00
52 | COc1ccc2c(c1)-c1nnc(COCc3cccc(F)c3)n1Cc1c(-c3noc(C(C)C)n3)ncn1-2 [Compound 183] | > 7.00
53 | CC(C)OCc1nnc2n1Cc1c(C3=N[C@H](c4ccccc4)CO3)ncn1-c1ccc(Cl)cc1-2 [Compound 268] | > 7.00
54 | Cc1nnn2c1Cc1c(Br)ncn1-c1ccc(F)cc1-2 [Compound 136] | 6.00 to 7.00
55 | Cc1nnn2c1Cc1c(-c3cccnc3)ncn1-c1ccc(F)cc1-2 [Compound 140] | < 6.00
56 | COCc1nnc2n1Cc1c(C3=N[C@H](c4ccccc4)CO3)ncn1-c1ccc(Cl)cc1-2 [Compound 263] | > 7.00
57 | COCc1nnn2c1Cc1c(C3=N[C@@H](C)CO3)ncn1-c1ccc(Cl)cc1-2 [Compound 300] | 6.00 to 7.00
58 | CCOCc1nnc2n1Cc1c(C#Cc3ccccc3C)ncn1-c1ccc(Cl)cc1-2 [Compound 311] | > 7.00
59 | COc1ccc2c(c1)-n1nnc(C)c1Cc1c(-c3ncco3)ncn1-2 [Compound 347] | 6.00 to 7.00
60 | COc1ccc2c(c1)-n1nncc1Cc1c(C#Cc3ccc(OC(F)(F)F)cc3)ncn1-2 [Compound 412] | > 7.00
61 | COc1ccc2c(c1)-n1nnc(CN3CCCC3)c1Cc1c(-c3nc(C(C)C)no3)ncn1-2 [Compound 170] | 6.00 to 7.00
62 | COCc1nnc2n1Cc1c(C3=NC[C@H](C)O3)ncn1-c1ccc(Cl)cc1-2 [Compound 295] | > 7.00
63 | COc1ccc2c(c1)-n1nncc1Cc1c(C#CCc3ccccc3)ncn1-2 [Compound 413] | > 7.00
64 | CC(C)c1noc(-c2ncn3c2Cc2cnnn2-c2cc(Cl)ccc2-3)n1 [Compound 426] | > 7.00
65 | CC(C)C#Cc1ncn2c1Cc1cnnn1-c1cc(Cl)ccc1-2 [Compound 415] | > 7.00
66 | FC(F)(F)COCc1nnc2n1Cc1c(-c3nc(-c4ccccc4)co3)ncn1-c1ccc(Cl)cc1-2 [Compound 313] | > 7.00
67 | Fc1ccc2c(c1)-n1cnc(Br)c1Cc1c(Cc3ccccc3)nnn1-2 [Compound 229] | < 6.00
68 | COCc1nnc2n1Cc1c(-c3nc(C)no3)ncn1-c1ccc(-c3ccccc3)cc1-2 [Compound 462] | > 7.00
69 | Cc1nnn2c1Cc1c(-c3ccccc3)ncn1-c1ccc(F)cc1-2 [Compound 139] | 6.00 to 7.00
70 | COc1ccc2c(c1)-c1nnc(COc3ccc(F)cc3)n1Cc1c(-c3noc(C(C)C)n3)ncn1-2 [Compound 172] | > 7.00

Same assay, conditions: inhibition of [3H]Ro15-1788 binding; reported as ranges

Row | Structure (SMILES) | pKi
71 | COCc1nnc2n1Cc1c(COCc3cccc(F)c3)ncn1-c1ccc(Cl)cc1-2 [Compound 432] | < 6.00

— patent US20180170941A1 (priority 2016, published 2018)
